Experimental data taken from the NIST ThermoML archive (doi:10.1016/j.fluid.2014.11.010).
± gives the expanded uncertainty stated by the source.

details: 313.15 K; Liquid; Closed cell (Static) method

Compound | vapor or sublimation pressure
CCCCO [butan-1-ol] | 2.506 ± 0.015 kPa
CCC(C)O (centres undefined) [butan-2-ol] | 6.05 ± 0.02 kPa
C=CCCCC [hex-1-ene] | 45 ± 0.092 kPa
Cc1ccccc1 [toluene] | 7.876 ± 0.022 kPa
